Holding throughout (type): cell-based
The test system of assay [1] is TNF-α. Kind of assay: Compound stimulation and multi-cytokine measurement (TNF-α production). The conditions noted are these: cytokine induction; FIG. 2: human PBMC TNF-α production; read-out: EC50 value with respect to agonism of TNF-α. As for the experimental part:
Human blood from one or multiple human donors were collected into the BD Vacutainer™ CPT tube with sodium citrate (BD, Franklin Lakes, N.J.), and spun for 20 minutes at 1600 g. After centrifugation, mononuclear cells in the top layer in the tubes were collected and then washed three times with PBS buffer. The washed cells were then reconstituted at a required cell concentration in complete RPMI containing 10% FBS plus 100 units/ml penicillin and 100 ug/ml streptomycin.
Human PBMC (hPBMC) (at 1 million cells/ml) or mouse spleen cells (at 5 million cells/ml) or human monocytic THP-1 cells (at 1 million cells/ml) were mixed with tested compounds such as imidazoquinoxalines at titrated compound concentrations in the complete RPMI medium. After the cell cultures were incubated for 24 hours at 37° C., 5% CO2, the culture supernatant was collected and assayed for the secreted cytokines in the presence of the compounds. […]
Due to the agonist nature of the compounds tested, compound ranking is based on potency in cell-based screens for cytokine induction. Briefly, the EC50 of each compound for a given cytokine is calculated relative to a reference composition (i.e. LPS or other potent immune stimulator). […] Rank-scoring of SMIP potency is calculated by dividing the maximum concentration of cytokine produced by the relative EC50 established for each compound indicated.

In assay [2] the test system is IL-6. The assay is described as follows: Compound stimulation and multi-cytokine measurement (IL-6 production). The conditions noted are these: cytokine induction; cell type not stated at the result; read-out: EC50 value with respect to agonism of IL-6. As for the experimental part: Human PBMC (hPBMC) (at 1 million cells/ml) or mouse spleen cells (at 5 million cells/ml) or human monocytic THP-1 cells (at 1 million cells/ml) were mixed with tested compounds such as imidazoquinoxalines at titrated compound concentrations in the complete RPMI medium. After the cell cultures were incubated for 24 hours at 37° C., 5% CO2, the culture supernatant was collected and assayed for the secreted cytokines in the presence of the compounds. Human or mouse Beadlyte multi-cytokine flex kits (Upstate, Lake Placid, N.Y.) were used to measure the amount of the following cytokines: TNF-α and IL-6 according to the manufacturers instructions.
Due to the agonist nature of the compounds tested, compound ranking is based on potency in cell-based screens for cytokine induction. Briefly, the EC50 of each compound for a given cytokine is calculated relative to a reference composition (i.e. LPS or other potent immune stimulator). This value is then used as the divisor of the maximum level of cytokine produced (pg/ml) in the assay. Five parameter curve fitting of cytokine dose response curves to different SMIPs for the indicated cell populations is used to calculate EC50. Rank-scoring of SMIP potency is calculated by dividing the maximum concentration of cytokine produced by the relative EC50 established for each compound indicated.

The target of assay [3] is T1, mouse TLR7 (Mus musculus, UniProt P58681).
T1 construct: host or cells: HEK293 cells (ATCC, CRL-1573)
T1 sequence (P58681 27-1050): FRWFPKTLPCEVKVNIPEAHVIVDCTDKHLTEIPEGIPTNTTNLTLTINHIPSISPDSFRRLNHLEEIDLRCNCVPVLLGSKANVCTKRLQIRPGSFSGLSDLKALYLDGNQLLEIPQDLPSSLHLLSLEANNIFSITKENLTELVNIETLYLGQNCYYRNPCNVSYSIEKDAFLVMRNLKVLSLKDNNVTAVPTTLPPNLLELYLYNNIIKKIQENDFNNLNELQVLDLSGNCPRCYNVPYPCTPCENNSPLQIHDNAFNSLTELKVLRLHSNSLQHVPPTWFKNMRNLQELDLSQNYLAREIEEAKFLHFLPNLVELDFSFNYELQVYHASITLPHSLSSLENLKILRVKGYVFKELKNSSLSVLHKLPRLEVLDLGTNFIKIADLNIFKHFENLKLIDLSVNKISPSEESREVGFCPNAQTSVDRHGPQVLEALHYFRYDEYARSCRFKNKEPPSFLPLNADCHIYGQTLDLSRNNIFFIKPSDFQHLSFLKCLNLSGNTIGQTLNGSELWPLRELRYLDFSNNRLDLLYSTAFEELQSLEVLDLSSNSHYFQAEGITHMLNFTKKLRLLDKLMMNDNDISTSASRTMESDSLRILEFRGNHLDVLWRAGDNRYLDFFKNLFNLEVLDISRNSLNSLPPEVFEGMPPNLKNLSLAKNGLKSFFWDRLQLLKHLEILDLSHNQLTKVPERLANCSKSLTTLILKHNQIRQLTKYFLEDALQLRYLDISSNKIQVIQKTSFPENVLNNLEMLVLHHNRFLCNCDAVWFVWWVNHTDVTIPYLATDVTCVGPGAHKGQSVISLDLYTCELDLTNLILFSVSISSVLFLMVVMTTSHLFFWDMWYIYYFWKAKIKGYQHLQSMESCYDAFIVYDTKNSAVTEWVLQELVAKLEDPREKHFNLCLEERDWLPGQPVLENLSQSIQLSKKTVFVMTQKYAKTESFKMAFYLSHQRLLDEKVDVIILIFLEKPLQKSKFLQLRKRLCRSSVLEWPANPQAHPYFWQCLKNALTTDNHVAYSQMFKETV
The assay is described as follows: TLR signaling, NF-kB luciferase reporter in transfected HEK293 cells. The note with it: HEK293 transfected with mTLR7, NF-kB luciferase; FIG. 1. As for the experimental part:
(§1) HEK293 cells (ATCC, CRL-1573) are seeded in a T75 flask at 3×10^6 in 20 ml of DMEM supplemented with 0.1 mM nonessential amino acid, 1 mM sodium pyruvate, 2 mM L-glutamine, penicillin-streptomycin, and 10% FCS. After overnight culturing, the cells are transfected with 1) pNFkB-TA-luciferase reporter (0.4 ug) (BD clontech, Palo Alto, Calif.), and with 2) with pGL4.74 (0.01 ug) that carries a TK promoter, not responsive to NF-kB stimulation, and carries a Renilla luciferase gene, used as an internal control (Promega, Wis.), and 3), separately with a following TLR construct (10 ug): human TLR (hTLR) 7, hTLR8, mouse TLR7 (mTLR7) puno constructs (Invivogene, CA), using Fugene 6 transfection reagent (Roche). The transfected cells after 24 hours transfection are collected and seeded in a 96-well and flat-bottom plate (1×10^4 cell/well) plate, and stimulated with the test compounds at the following concentrations: 30, 10, 3, 1, 0.3, 0.1, 0.03 uM. After overnight compound stimulation, the cells are assayed for expression of fly and renilla luciferases using Dual-Luciferase Reporter Assay System (Promega, WI). NF-kb activation is directly proportional to relative fly luciferase units, which is measured against the internal control renilla luciferase units.
Background: A reporter such as luciferase makes a cellular process visible.

The target of assay [4] is T2, human TLR8 (Homo sapiens, UniProt Q9NR97).
T2 construct: host or cells: HEK293 cells (ATCC, CRL-1573)
T2 sequence (Q9NR97 27-1041): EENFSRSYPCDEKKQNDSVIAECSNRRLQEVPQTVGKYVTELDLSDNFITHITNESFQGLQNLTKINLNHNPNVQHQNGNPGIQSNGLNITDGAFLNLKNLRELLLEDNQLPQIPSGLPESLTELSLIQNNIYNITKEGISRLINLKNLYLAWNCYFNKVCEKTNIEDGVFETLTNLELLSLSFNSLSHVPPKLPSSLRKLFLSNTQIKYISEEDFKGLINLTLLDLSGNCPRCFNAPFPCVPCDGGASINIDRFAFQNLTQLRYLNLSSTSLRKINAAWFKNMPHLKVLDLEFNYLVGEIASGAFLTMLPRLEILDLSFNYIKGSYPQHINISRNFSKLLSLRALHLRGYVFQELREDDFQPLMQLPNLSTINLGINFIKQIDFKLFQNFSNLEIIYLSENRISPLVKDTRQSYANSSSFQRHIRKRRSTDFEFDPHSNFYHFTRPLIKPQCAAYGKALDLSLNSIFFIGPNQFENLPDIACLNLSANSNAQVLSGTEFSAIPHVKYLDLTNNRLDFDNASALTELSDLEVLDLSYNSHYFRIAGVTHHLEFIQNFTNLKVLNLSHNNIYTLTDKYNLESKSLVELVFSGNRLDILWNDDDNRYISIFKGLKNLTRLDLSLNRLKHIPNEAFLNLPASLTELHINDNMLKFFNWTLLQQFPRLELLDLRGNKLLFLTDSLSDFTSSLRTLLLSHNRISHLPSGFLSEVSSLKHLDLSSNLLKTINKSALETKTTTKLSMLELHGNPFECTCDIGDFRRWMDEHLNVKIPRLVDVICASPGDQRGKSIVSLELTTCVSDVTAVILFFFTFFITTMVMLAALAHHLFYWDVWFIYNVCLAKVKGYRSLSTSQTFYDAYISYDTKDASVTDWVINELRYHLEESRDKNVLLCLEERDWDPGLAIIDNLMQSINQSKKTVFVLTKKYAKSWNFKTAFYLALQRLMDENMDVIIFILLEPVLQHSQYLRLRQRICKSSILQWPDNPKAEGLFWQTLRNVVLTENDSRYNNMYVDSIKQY
The assay is described as above. The conditions noted are these: HEK293 transfected with hTLR8, NF-kB luciferase; FIG. 1. As for the experimental part: as §1

Assay [5] has as its target T3, human TLR7 (Homo sapiens, UniProt Q9NYK1).
T3 construct: host or cells: HEK293 cells (ATCC, CRL-1573)
T3 sequence (Q9NYK1 27-1049): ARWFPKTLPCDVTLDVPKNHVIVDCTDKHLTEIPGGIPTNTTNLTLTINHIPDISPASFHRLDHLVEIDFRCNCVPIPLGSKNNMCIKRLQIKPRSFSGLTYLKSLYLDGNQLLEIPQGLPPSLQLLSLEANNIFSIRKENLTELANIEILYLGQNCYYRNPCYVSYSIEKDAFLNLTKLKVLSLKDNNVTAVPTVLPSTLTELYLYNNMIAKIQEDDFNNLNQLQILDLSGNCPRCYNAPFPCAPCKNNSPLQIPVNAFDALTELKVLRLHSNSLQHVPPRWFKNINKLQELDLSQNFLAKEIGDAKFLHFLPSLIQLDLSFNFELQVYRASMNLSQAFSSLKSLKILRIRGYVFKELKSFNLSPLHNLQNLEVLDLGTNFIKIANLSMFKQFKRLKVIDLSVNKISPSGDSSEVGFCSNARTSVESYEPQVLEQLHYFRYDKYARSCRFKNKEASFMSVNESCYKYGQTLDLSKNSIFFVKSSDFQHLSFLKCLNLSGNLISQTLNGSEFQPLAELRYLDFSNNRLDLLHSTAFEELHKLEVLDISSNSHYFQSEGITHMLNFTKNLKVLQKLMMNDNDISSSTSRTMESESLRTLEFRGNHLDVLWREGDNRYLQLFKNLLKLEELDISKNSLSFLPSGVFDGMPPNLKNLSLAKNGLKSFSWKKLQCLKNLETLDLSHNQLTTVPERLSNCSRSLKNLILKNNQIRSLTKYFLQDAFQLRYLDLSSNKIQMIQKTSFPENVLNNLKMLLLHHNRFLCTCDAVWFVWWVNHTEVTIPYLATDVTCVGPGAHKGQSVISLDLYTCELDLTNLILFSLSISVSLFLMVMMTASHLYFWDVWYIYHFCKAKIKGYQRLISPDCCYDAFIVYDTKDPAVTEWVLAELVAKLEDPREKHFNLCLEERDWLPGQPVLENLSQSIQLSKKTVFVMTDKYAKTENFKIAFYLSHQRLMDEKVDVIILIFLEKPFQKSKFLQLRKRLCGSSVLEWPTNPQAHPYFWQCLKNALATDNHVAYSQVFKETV
The assay is described as above. The note with it: HEK293 transfected with hTLR7, NF-kB luciferase; FIG. 1. As for the experimental part: as §1

A value given as a limit tells only on which side of the number the result lay.

Usually EC50 stands for the concentration at which the effect is half-maximal. For `CC(C)Cc1cn2c(n1)c(N)nc1ccccc12` [Example 3, 2-isobutylimidazo[1,2-a]quinoxalin-4-amine], the EC50 in assay [1] and in assay [2] was less than 15 µM throughout. In addition, in assay [3], the “reactivity for mouse TLR7” value is “slightly more reactivity for mouse TLR7 than did the compound of Example 4”. Also, the “stimulatory activity with human TLR8” value in assay [4] is “stimulatory activity”. Also, the “stimulation of human TLR7” value in assay [5] is reported as “activity for stimulation”.
For `CC(C)Cc1nc2c(N)nc3ccccc3n2c1CC(C)(C)O` [Example 4, 1-(4-amino-2-isobutylimidazo[1,2-a]quinoxalin-1-yl)-2-methylpropan-2-ol], the EC50 in assay [1] and in assay [2] was less than 15 µM throughout. The “stimulatory activity with human TLR8” value in assay [4] is on record as “little or no reactivity”.

Source of the values: patent publication US8173657B2, “Imidazoquinoxaline compounds as immunomodulators” (Novartis AG, priority 2006, dated 2012).
